From ChEMBL document CHEMBL5653631, “A Potent and Selective ULK1 Inhibitor Suppresses Autophagy and Sensitizes Cancer Cells to Nutrient Stress” (iScience, 2018)

Legend:
[1] = biological target: Dual specificity protein kinase CLK1 (Homo sapiens) (UniProt P49759); experiment: Inhibition of human recombinant CLK1 at 500 nM in presence of ATP by radiometric assay relative to control
[2] = biological target: Insulin receptor-related protein (Homo sapiens) (UniProt P14616); experiment: Inhibition of human recombinant IRR at 500 nM in presence of ATP by radiometric assay relative to control
[3] = biological target: Ribosomal protein S6 kinase alpha-3 (Homo sapiens) (UniProt P51812); experiment: Inhibition of human recombinant RSK2 at 15 nM in presence of ATP by radiometric assay relative to control
Sequence of Ribosomal protein S6 kinase alpha-3 (Homo sapiens) (P51812 whole entry): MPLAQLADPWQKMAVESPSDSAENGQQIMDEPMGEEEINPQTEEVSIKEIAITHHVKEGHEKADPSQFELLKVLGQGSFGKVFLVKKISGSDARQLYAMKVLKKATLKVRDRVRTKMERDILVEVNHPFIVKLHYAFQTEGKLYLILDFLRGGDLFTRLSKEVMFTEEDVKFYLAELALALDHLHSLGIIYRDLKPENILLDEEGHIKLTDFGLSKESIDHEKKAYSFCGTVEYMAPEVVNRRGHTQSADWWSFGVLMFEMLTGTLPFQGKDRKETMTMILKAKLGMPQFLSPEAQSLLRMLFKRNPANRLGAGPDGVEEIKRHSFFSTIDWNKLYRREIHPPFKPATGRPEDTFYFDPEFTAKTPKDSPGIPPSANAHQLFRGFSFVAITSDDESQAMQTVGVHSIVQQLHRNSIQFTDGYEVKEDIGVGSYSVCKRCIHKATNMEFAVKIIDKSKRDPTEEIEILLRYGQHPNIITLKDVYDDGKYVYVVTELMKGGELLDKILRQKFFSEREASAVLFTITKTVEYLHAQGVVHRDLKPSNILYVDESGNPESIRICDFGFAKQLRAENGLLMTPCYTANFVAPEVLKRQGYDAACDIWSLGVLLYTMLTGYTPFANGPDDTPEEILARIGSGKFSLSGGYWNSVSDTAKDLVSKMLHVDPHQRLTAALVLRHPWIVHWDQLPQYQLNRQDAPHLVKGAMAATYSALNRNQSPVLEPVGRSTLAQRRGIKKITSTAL

[4] = biological target: Serine/threonine-protein kinase MRCK alpha (Homo sapiens) (UniProt Q5VT25); experiment: Inhibition of human recombinant MRCKa at 15 nM in presence of ATP by radiometric assay relative to control
[5] = biological target: Tau-tubulin kinase 1 (Homo sapiens) (UniProt Q5TCY1); experiment: Inhibition of human recombinant TTBK1 at 15 nM in presence of ATP by radiometric assay relative to control
[6] = biological target: Mitogen-activated protein kinase kinase kinase 10 (Homo sapiens) (UniProt Q02779); experiment: Inhibition of human recombinant MLK2 at 15 nM in presence of ATP by radiometric assay relative to control
Sequence of Mitogen-activated protein kinase kinase kinase 10 (Homo sapiens) (Q02779 whole entry, looked up): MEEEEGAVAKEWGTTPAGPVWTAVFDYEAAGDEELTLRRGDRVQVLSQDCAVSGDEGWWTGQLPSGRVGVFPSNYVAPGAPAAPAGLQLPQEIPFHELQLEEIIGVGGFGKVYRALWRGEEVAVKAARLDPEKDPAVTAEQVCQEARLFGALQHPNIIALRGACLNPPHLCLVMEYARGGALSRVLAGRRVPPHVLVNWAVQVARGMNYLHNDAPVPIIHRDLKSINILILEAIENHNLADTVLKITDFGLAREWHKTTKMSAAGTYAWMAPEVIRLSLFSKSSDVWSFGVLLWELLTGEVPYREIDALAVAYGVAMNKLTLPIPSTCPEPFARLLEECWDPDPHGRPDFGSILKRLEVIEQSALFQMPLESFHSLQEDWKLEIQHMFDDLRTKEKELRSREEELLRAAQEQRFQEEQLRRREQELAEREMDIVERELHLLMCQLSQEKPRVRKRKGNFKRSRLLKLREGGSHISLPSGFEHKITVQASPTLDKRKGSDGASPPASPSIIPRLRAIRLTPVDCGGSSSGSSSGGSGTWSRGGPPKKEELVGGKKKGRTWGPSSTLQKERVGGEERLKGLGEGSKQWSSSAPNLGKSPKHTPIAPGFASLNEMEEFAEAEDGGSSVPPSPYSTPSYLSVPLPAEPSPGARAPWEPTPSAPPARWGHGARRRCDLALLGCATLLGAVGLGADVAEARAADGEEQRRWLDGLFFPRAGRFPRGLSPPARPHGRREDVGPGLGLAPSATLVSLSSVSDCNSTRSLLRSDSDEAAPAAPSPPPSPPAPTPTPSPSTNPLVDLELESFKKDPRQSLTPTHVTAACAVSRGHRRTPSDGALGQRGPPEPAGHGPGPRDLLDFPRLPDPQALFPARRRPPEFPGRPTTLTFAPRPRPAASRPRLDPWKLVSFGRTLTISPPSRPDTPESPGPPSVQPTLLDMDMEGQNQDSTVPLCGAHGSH

[7] = biological target: Tyrosine-protein kinase HCK (Homo sapiens) (UniProt P08631); experiment: Inhibition of human recombinant HCK at 15 nM related to control ULK1
Sequence of Tyrosine-protein kinase HCK (Homo sapiens) (P08631 2-526 limits assumed): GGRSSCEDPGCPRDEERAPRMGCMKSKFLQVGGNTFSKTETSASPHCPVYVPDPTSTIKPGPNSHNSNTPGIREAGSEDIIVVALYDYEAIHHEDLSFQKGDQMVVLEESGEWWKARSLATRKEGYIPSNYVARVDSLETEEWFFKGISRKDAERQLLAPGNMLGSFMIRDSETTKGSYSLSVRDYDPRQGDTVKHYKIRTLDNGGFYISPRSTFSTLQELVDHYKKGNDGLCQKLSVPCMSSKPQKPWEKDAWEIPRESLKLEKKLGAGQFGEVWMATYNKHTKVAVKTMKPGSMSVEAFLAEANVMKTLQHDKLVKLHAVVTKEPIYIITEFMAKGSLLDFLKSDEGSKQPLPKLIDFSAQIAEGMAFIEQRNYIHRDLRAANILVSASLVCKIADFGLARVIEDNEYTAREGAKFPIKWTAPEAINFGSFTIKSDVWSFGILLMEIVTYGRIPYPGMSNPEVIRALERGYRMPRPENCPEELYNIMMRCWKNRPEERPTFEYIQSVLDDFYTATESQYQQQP

[8] = biological target: BDNF/NT-3 growth factors receptor (Homo sapiens) (UniProt Q16620); experiment: Inhibition of human recombinant TRKB at 15 nM in presence of ATP by radiometric assay relative to control
Sequence of BDNF/NT-3 growth factors receptor (Homo sapiens) (Q16620 32-822 limits assumed): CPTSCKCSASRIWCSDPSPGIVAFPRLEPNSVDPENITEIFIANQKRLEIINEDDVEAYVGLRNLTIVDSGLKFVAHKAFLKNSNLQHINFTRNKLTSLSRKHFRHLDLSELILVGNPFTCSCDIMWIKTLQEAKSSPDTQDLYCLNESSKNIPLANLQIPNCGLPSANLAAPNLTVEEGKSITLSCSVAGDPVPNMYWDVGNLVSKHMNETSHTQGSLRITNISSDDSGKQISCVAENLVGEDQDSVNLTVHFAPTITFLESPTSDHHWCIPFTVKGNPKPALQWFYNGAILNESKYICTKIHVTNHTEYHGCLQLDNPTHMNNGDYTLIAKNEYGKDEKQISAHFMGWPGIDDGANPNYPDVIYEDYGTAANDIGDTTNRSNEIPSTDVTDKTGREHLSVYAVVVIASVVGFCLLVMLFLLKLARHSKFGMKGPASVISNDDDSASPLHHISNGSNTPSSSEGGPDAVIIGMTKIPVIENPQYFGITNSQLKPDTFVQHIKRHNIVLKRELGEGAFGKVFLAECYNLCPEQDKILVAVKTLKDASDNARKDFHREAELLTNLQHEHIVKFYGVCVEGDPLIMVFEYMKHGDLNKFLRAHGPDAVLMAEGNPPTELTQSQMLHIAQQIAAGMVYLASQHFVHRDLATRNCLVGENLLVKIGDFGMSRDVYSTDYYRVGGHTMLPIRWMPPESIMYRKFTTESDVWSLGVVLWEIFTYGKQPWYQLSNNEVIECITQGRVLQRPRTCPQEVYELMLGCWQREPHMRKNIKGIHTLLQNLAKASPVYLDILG

[9] = biological target: Dual specificity protein kinase CLK2 (Homo sapiens) (UniProt P49760); experiment: Inhibition of human recombinant CLK2 at 15 nM in presence of ATP by radiometric assay relative to control
Sequence of Dual specificity protein kinase CLK2 (Homo sapiens) (P49760 whole entry, looked up): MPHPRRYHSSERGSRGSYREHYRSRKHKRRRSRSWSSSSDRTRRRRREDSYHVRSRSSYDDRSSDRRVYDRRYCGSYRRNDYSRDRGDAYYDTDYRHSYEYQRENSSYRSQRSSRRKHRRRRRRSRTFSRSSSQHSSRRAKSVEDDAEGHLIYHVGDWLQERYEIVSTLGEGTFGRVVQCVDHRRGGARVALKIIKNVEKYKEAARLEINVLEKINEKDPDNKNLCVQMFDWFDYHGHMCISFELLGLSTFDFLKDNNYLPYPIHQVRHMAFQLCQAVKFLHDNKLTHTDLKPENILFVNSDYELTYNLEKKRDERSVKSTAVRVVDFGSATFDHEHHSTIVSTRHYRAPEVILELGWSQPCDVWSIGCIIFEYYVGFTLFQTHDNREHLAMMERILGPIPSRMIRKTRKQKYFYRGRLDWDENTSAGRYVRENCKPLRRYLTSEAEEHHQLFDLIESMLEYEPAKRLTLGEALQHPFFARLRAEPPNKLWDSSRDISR

[10] = biological target: Dual specificity protein kinase CLK2 (Homo sapiens) (UniProt P49760); experiment: Inhibition of human recombinant CLK2 at 40 nM in presence of ATP by radiometric assay relative to control
[11] = biological target: Death-associated protein kinase 2 (Homo sapiens) (UniProt Q9UIK4); experiment: Inhibition of human recombinant DAPK2 at 40 nM in presence of ATP by radiometric assay relative to control
Sequence of Death-associated protein kinase 2 (Homo sapiens) (Q9UIK4 whole entry, looked up): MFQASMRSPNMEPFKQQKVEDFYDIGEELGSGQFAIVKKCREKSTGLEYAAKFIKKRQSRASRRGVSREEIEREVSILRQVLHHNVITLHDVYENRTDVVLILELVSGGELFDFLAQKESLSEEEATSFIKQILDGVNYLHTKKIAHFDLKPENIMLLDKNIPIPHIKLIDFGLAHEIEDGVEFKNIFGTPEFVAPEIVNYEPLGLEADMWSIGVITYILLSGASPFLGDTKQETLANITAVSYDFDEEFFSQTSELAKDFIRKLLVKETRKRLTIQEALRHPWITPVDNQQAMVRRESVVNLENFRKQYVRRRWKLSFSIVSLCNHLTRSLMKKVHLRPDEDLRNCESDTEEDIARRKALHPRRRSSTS

[12] = biological target: T1, Bone morphogenetic protein receptor type-2 (Homo sapiens) (UniProt Q13873); experiment: Inhibition of human recombinant BMPR2 at 40 nM related to control ULK1
T1 sequence (whole entry): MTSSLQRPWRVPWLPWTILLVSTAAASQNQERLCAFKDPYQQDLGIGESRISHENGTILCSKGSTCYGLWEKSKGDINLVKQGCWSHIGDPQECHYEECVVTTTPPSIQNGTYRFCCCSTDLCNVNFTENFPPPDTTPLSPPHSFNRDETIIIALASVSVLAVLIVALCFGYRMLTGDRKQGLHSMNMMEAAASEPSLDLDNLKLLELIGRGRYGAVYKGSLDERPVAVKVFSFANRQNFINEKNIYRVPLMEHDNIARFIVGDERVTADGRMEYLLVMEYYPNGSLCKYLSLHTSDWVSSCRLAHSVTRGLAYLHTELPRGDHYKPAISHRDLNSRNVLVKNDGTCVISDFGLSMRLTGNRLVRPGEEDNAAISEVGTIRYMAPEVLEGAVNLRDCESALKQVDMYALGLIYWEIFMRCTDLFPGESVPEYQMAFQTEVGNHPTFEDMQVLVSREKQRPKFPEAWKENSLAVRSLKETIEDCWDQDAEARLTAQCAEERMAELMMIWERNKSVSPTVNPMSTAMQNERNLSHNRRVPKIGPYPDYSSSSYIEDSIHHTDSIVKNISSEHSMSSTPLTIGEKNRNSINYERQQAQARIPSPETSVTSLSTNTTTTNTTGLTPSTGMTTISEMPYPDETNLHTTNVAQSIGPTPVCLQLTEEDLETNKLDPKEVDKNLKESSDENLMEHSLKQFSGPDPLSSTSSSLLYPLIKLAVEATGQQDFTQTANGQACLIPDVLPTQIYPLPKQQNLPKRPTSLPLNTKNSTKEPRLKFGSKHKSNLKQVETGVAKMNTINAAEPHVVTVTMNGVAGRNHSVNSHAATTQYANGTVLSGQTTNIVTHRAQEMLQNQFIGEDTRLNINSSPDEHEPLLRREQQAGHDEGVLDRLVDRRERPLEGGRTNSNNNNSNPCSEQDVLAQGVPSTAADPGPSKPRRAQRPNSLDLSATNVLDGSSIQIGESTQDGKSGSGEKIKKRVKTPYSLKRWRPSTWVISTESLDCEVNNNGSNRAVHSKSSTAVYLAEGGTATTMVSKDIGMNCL

[13] = biological target: T2, Muscle, skeletal receptor tyrosine-protein kinase (Homo sapiens) (UniProt O15146); experiment: Inhibition of human recombinant MUSK at 40 nM related to control ULK1
T2 sequence (whole entry): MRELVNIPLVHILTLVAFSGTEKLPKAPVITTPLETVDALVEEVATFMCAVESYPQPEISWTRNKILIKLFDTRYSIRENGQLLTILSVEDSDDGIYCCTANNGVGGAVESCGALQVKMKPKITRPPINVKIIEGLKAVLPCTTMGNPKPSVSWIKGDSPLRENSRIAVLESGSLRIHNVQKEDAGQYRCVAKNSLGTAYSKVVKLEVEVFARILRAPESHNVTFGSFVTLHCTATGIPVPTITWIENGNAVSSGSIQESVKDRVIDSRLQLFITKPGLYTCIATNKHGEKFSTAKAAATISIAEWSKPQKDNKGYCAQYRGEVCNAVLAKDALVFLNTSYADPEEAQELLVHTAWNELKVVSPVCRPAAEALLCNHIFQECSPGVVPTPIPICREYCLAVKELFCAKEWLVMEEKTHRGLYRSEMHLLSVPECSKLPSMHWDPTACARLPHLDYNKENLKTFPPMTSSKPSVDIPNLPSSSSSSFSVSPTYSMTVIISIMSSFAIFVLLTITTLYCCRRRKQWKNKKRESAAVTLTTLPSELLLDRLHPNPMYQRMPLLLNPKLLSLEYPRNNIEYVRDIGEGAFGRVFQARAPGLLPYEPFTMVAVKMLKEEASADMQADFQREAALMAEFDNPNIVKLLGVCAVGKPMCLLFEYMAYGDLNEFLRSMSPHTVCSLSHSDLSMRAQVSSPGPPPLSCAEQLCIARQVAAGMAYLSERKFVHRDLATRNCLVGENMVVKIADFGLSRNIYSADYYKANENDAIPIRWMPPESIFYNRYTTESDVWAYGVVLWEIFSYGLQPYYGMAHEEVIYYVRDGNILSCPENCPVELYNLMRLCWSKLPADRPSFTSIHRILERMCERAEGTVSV

Sequence of Dual specificity protein kinase CLK1 (Homo sapiens) (P49759 whole entry, looked up): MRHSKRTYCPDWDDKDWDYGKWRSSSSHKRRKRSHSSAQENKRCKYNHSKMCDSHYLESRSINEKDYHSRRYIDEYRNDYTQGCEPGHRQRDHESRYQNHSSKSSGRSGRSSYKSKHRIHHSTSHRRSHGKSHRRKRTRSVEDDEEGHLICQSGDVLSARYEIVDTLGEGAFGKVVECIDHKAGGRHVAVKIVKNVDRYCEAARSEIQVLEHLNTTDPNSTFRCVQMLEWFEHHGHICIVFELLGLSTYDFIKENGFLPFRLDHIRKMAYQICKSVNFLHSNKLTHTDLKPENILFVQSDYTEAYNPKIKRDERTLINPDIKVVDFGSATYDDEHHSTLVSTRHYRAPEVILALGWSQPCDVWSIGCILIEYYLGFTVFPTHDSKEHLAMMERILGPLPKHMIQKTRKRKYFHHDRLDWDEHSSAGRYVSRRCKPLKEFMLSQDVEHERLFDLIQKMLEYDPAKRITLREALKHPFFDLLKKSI

Molecule `CNC(=O)c1ccccc1Oc1nc(Nc2cc(OC)c(OC)c(OC)c2)ncc1Br` has an inhibition [1] of 5% and an inhibition [2] of 9%.

For `CC(C)[C@H](NC(=O)c1cc(-c2cnn3cc(-c4ccc(OCCN5CCCCC5)cc4)cnc23)cs1)C(F)(F)F`, the inhibition [3] was 0%, the inhibition [4] was 11% and the inhibition [5] was 0%. For the same molecule, the inhibition [6] was 12%, the fold change (FC) [7] was 0.3 and the inhibition [8] was 0%. For the same molecule, the inhibition [9] was 29%.

`O=C(N[C@@H](C1CC1)C(F)(F)F)c1cc(-c2cnn3cc(-c4ccc(F)cc4)cnc23)cs1` showed an inhibition [10] of 19%, an inhibition [11] of 0% and a fold change (FC) [12] of 0.08. It also gave a fold change (FC) [13] of 0.18.
